Measured values from ChEMBL document CHEMBL1133495 (Bioorg Med Chem Lett, 2000).

Columns and labels:
[1] = target: Sodium-dependent dopamine transporter (Homo sapiens, UniProt Q01959); test: Inhibition of [3H]dopamine uptake in HEK cells expressing human Dopamine transporter; format: cell-based, HEK293
[2] = target: Sodium-dependent noradrenaline transporter (Homo sapiens, UniProt P23975); test: The compound was tested for inhibition of [3H]norepinephrine uptake in HEK cells by expressing cDNA for human norepinephrine transporter; format: cell-based, HEK293
Sequence of Sodium-dependent noradrenaline transporter (P23975 whole entry): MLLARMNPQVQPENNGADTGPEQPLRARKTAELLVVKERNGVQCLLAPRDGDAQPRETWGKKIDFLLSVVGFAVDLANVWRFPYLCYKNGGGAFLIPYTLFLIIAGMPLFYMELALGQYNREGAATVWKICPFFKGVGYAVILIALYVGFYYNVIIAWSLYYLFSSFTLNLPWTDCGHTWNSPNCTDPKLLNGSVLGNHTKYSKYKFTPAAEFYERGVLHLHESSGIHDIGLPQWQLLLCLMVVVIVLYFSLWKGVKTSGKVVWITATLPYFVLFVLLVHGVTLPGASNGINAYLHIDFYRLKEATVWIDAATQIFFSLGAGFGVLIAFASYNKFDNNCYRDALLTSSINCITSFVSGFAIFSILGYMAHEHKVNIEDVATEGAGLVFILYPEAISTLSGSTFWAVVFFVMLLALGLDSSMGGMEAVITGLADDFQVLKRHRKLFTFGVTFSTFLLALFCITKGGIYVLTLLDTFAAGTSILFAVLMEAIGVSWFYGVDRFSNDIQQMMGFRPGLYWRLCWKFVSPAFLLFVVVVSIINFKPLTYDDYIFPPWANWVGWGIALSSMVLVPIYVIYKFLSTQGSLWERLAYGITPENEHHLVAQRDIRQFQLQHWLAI

[3] = target: Monoamine transporters; serotonin & dopamine (Homo sapiens) (UniProt P31645+Q01959); test: Ratio of 5-hydroxy tryptamine and dopamine transporter inhibition; format: protein assay
Sequence of Monoamine transporters; serotonin & dopamine (Homo sapiens) (P31645 whole entry, looked up): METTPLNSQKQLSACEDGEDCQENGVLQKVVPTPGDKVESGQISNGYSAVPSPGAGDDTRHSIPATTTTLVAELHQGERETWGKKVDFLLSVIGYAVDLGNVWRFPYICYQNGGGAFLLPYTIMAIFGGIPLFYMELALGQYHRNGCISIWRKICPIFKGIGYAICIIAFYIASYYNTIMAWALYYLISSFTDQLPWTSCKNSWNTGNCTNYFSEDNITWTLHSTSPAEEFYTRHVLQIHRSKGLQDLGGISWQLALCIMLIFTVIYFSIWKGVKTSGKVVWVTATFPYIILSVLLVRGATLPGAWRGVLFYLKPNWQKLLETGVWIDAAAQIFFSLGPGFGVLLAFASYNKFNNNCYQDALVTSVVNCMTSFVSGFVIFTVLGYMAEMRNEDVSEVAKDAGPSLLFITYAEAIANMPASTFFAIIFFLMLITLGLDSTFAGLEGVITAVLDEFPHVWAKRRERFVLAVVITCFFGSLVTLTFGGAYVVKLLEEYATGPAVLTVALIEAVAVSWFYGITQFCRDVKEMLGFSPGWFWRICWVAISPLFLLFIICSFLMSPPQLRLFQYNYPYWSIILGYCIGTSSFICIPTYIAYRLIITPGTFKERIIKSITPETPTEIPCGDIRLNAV
Sequence of Monoamine transporters; serotonin & dopamine (Homo sapiens) (Q01959 whole entry, looked up): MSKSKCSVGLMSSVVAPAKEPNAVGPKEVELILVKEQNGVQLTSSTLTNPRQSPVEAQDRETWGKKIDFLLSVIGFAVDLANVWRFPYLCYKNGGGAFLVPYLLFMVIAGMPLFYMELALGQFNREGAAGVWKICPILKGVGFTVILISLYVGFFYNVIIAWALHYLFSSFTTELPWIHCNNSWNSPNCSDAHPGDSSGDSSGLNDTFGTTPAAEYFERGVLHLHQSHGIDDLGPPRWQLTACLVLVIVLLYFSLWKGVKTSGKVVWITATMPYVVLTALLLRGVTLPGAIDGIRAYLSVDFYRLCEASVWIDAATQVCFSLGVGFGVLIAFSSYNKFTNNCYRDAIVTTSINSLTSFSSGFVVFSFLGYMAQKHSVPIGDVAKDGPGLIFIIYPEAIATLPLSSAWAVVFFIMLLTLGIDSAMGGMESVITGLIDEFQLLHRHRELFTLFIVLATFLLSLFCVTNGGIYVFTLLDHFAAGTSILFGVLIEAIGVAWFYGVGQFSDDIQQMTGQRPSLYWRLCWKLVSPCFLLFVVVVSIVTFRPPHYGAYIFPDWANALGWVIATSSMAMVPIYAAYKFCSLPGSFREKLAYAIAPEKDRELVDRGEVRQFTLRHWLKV

[4] = target: Sodium-dependent serotonin transporter (Homo sapiens, UniProt P31645); test: The compound was tested for inhibition of [3H]-5-hydroxy tryptamine uptake in HEK cells by expressing cDNA for human […]; format: cell-based, HEK293
Sequence of Sodium-dependent serotonin transporter (P31645 whole entry): as the sequence (P31645 whole entry, looked up) above

Sequence of Sodium-dependent dopamine transporter (Q01959 whole entry): as the sequence (Q01959 whole entry, looked up) above

| SMILES | IC50 [1] [µM] | IC50 [2] [µM] | Ratio [3] | IC50 [4] [µM] |
| --- | --- | --- | --- | --- |
| CCCC1C2C3CCN2[C@H](C3)C[C@@H]1c1ccc(C)cc1 (stereo partly drawn) | 0.57 | 0.109 |  |  |
| C=C1CN2C3CC[C@@H]2C[C@H](c2ccc(C)cc2)C13 | 0.067 | 0.0022 | 0.49 | 0.033 |
| O=C1CN2C3CC[C@@H]2C[C@H](c2ccc(F)cc2)C13 | 3.32 | 0.62 | 0.076 | 0.251 |
| Cc1ccc([C@H]2C[C@H]3CCC4C2[C@@](O)(c2ccc(Cl)cc2)CN43)cc1 | 0.044 | 0.023 | 0.3 | 0.013 |
| Cc1ccc([C@H]2C[C@H]3CCC4C2C(=O)CN43)cc1 | 0.538 | 0.11 | 0.13 | 0.068 |
| CCC[C@@]1(O)CN2C3CC[C@@H]2C[C@H](c2ccc(C)cc2)C31 | 0.373 | 0.018 | 0.11 | 0.041 |
| Cc1ccc([C@H]2C[C@H]3CCC4C2[C@](C)(O)CN43)cc1 | 0.39 | 0.296 | 0.38 | 0.147 |
| Cc1ccc([C@H]2C[C@H]3CCC4C2[C@@](O)(c2ccccc2)CN43)cc1 |  | 0.011 |  | 0.0079 |
